Data reported in PubChem BioAssay AID328 (DTP/NCI, 2004).
Where “and” joins values, the source holds several entries; their conditions need not be identical. Equal values may be shown once. Toxic doses and inconclusive results are not listed.

System: BDF1 mice, P388 leukemia ip, median survival T/C
Experiment: NCI In Vivo Anticancer Drug Screen. Data for tumor model P388 Leukemia (intraperitoneal) in B6D2F1 (BDF1) mice
Settings: endpoint: median survival time, higher = longer survival
In short: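 Reported as T/C, where T is the survival measurement in dosed animals and C the same measurement in vehicle controls.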

[1] = dose: 25.0 mg/kg/injection, schedule: Q01DX009 (ip), vehicle: saline with Tween-80
[2] = dose: 50.0 mg/kg/injection, schedule: Q01DX009 (ip), vehicle: saline with Tween-80
[3] = dose: 100.0 mg/kg/injection, schedule: Q01DX009 (ip), vehicle: saline with Tween-80
[4] = dose: 200.0 mg/kg/injection, schedule: Q01DX009 (ip), vehicle: saline with Tween-80
[5] = dose: 100.0 mg/kg/injection, schedule: Q01DX009 (ip), vehicle: saline
[6] = dose: 200.0 mg/kg/injection, schedule: Q01DX009 (ip), vehicle: saline

**Q.** `CCC(C)(CC(=O)O)CC(=O)O` was tested. Which T/C (dose: 3.12 mg/kg/injection, schedule: Q01DX009 (ip), vehicle: saline with Tween-80) did it give?
**A.** 95 % of control

**Q.** And the T/C (dose: 6.25 mg/kg/injection, schedule: Q01DX009 (ip), vehicle: saline with Tween-80)?
**A.** 112 % of control

**Q.** What about the T/C (dose: 12.5 mg/kg/injection, schedule: Q01DX009 (ip), vehicle: saline with Tween-80) of the same compound?
**A.** 116 % of control

**Q.** What about the T/C [1] of the same compound?
**A.** 87 % of control

**Q.** And the T/C [2]?
**A.** 87 % of control

**Q.** And the T/C (dose: 100.0 mg/kg/injection, schedule: Q04DX003 (ip), vehicle: saline)?
**A.** 110 % of control

**Q.** And the T/C (dose: 200.0 mg/kg/injection, schedule: Q04DX003 (ip), vehicle: saline)?
**A.** 120 % of control

**Q.** What about the T/C (dose: 400.0 mg/kg/injection, schedule: Q04DX003 (ip), vehicle: saline) of the same compound?
**A.** 120 % of control

**Q.** What does the source list for `CN(C)CCC(=O)C(=Cc1ccc(Cl)c(Cl)c1)C(=O)CCN(C)C`?
**A.** T/C (dose: 50.0 mg/kg/injection, schedule: Q01DX005 (ip), vehicle: saline): 109 % of control; T/C (dose: 100.0 mg/kg/injection, schedule: Q01DX005 (ip), vehicle: saline): 114 % of control

**Q.** How did the T/C (dose: 50.0 mg/kg/injection, schedule: Q04DX002 (ip), vehicle: saline) turn out when `CP1(=O)CC(=O)CCC(=O)C1` was run?
**A.** 104 % of control

**Q.** And the T/C (dose: 100.0 mg/kg/injection, schedule: Q04DX002 (ip), vehicle: saline)?
**A.** 105 % of control

**Q.** And the T/C (dose: 200.0 mg/kg/injection, schedule: Q04DX002 (ip), vehicle: saline)?
**A.** 106 % of control

**Q.** With `CCOC(=O)Cc1csc(=NC(=O)c2ccccc2)n1N` as the compound, how does the T/C [2] read?
**A.** 108 % of control

**Q.** And the T/C [3]?
**A.** 115 % of control

**Q.** And the T/C [4]?
**A.** 101 % of control

**Q.** How did the T/C [1] turn out when `CCOC(=O)c1cnn(C)c1N` was run?
**A.** 93 % of control

**Q.** What about the T/C (dose: 25.0 mg/kg/injection, schedule: Q04DX003 (ip), vehicle: water) of the same compound?
**A.** 109 % of control

**Q.** What about the T/C [2] of the same compound?
**A.** 102 % of control

**Q.** What about the T/C (dose: 50.0 mg/kg/injection, schedule: Q04DX003 (ip), vehicle: water) of the same compound?
**A.** 99 % of control

**Q.** What about the T/C [3] of the same compound?
**A.** 100 % of control

**Q.** What about the T/C (dose: 100.0 mg/kg/injection, schedule: Q04DX003 (ip), vehicle: water) of the same compound?
**A.** 114 % of control

**Q.** What about the T/C (dose: 200.0 mg/kg/injection, schedule: Q04DX003 (ip), vehicle: water) of the same compound?
**A.** 91 % of control

**Q.** What about the T/C (dose: 400.0 mg/kg/injection, schedule: Q04DX003 (ip), vehicle: water) of the same compound?
**A.** 116 % of control

**Q.** With `C/C(=C\c1ccc(OCc2ccccc2)cc1)C(=O)c1ccc(Cl)cc1` as the compound, how does the T/C [2] read?
**A.** 90 % of control

**Q.** What about the T/C [3] of the same compound?
**A.** 87 % of control

**Q.** And the T/C [4]?
**A.** 92 % of control

**Q.** Which T/C [5] does the source give for `COc1ccc(C(C)=O)c(OC)c1C` here?
**A.** 104 % of control

**Q.** What about the T/C [6] of the same compound?
**A.** 96 % of control

**Q.** What about the T/C (dose: 400.0 mg/kg/injection, schedule: Q01DX009 (ip), vehicle: saline) of the same compound?
**A.** 100 % of control

**Q.** With `Clc1ccc(CNc2ncnc3[nH]ncc23)c(Cl)c1` as the compound, how does the T/C [2] read?
**A.** 104 % of control

**Q.** What about the T/C [3] of the same compound?
**A.** 100 % of control

**Q.** And the T/C [4]?
**A.** 90 % of control

**Q.** What does the source list for `O=C(O)C(OP(=O)(O)O)C(=O)O`?
**A.** T/C (dose: 25.0 mg/kg/injection, schedule: Q01DX009 (ip), vehicle: saline): 110 % of control; T/C (dose: 50.0 mg/kg/injection, schedule: Q01DX009 (ip), vehicle: saline): 95 % of control; T/C [5]: 94 % of control; T/C [6]: 100 % of control

**Q.** What does the source list for `NC(CCC(=O)NC(CSC(c1ccccc1)(c1ccccc1)c1ccc(F)cc1)C(=O)NCC(=O)O)C(=O)O` (stereo not given)?
**A.** T/C (dose: 115.0 mg/kg/injection, schedule: Q04DX003 (ip), vehicle: saline): 118 % of control; T/C (dose: 177.0 mg/kg/injection, schedule: Q04DX003 (ip), vehicle: saline with Tween-80): 118 % of control; T/C (dose: 266.0 mg/kg/injection, schedule: Q04DX003 (ip), vehicle: saline with Tween-80): 159 % of control; T/C (dose: 266.0 mg/kg/injection, schedule: Q04DX003 (ip), vehicle: saline): 181 % of control; T/C (dose: 400.0 mg/kg/injection, schedule: Q04DX003 (ip), vehicle: saline with Tween-80): 231 % of control

**Q.** With `CCCOC(=O)c1ccc(OP(=O)(N(C)C)N(C)C)cc1` as the compound, how does the T/C [2] read?
**A.** 100 % of control

**Q.** And the T/C [3]?
**A.** 104 % of control

**Q.** And the T/C [4]?
**A.** 100 % of control

**Q.** What does the source list for `O=CC(OC(=O)c1ccccc1)C(OC(=O)c1ccccc1)C(COC(c1ccccc1)(c1ccccc1)c1ccccc1)OC(=O)c1ccccc1` (stereo not given)?
**A.** T/C [1]: 110 % of control; T/C [2]: 110 % of control; T/C [3]: 120 % of control; T/C [4]: 100 % of control and 108 % of control

**Q.** `NC(=O)NO` was tested. Which T/C (dose: 31.3 mg/kg/injection, schedule: Q01DX010 (ip), vehicle: saline) did it give?
**A.** 100 % of control

**Q.** And the T/C (dose: 62.5 mg/kg/injection, schedule: Q01DX010 (ip), vehicle: saline)?
**A.** 100 % of control

**Q.** And the T/C (dose: 125.0 mg/kg/injection, schedule: Q01DX010 (ip), vehicle: saline)?
**A.** 100 % of control

**Q.** What about the T/C (dose: 250.0 mg/kg/injection, schedule: Q01DX010 (ip), vehicle: saline) of the same compound?
**A.** 100 % of control

**Q.** What about the T/C (dose: 500.0 mg/kg/injection, schedule: Q01DX010 (ip), vehicle: saline) of the same compound?
**A.** 150 % of control

**Q.** And the T/C (dose: 750.0 mg/kg/injection, schedule: Q01DX009 (ip), vehicle: saline)?
**A.** 100 % of control
